Data: ChEMBL document CHEMBL4118030, “Polyketides and Anthranilic Acid Possessing 6-Deoxy-α-l-talopyranose from a Streptomyces Species” (J Nat Prod, 2017)
Activity calls are given as the source filed them. The calls are words filed in the database; no cut-off is given here.

Key:
[1] = tested on: HeLa; assay: Antiproliferative activity against human HeLa cells after 48 hrs by MTT assay; type: functional, cell-based
[2] = tested on: HeLa; assay: Induction of autophagosome accumulation in human HeLa cells harboring RFP-GFP-LC3 assessed as increase in p62 level after 24 hrs by immunoblot method; type: functional, cell-based
[3] = tested on: MDA-MB-231; assay: Antiproliferative activity against human MDA-MB-231 cells after 48 hrs by MTT assay; type: functional, cell-based; conditions: MDA-MB-231, 48 h
[4] = molecular target: T1, Indoleamine 2,3-dioxygenase 1 (Homo sapiens, UniProt P14902); assay: Inhibition of ascorbic acid/methylene blue activated recombinant human IDO expressed in Escherichia coli up to 10 uM using L-Tryptophan as substrate after 60 mins by spectrophotometric method relative to control
Target sequence in this assay (P14902 whole entry, looked up): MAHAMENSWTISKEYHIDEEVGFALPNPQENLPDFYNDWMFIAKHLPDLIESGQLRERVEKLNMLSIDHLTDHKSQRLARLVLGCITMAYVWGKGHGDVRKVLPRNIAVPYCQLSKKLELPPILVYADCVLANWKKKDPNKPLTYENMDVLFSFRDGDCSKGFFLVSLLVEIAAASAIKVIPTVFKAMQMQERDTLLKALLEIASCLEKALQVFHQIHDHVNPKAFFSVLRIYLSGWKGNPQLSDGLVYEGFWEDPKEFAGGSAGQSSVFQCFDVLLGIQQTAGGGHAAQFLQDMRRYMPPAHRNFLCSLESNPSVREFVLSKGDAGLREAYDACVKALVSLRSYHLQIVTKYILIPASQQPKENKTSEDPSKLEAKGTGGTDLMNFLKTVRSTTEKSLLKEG

[5] = tested on: SW480; assay: Antiproliferative activity against human SW480 cells after 48 hrs by MTT assay; type: functional, cell-based; conditions: SW480, 48 h
[6] = tested on: U2OS; assay: Antiproliferative activity against human U2OS cells after 48 hrs by MTT assay; type: functional, cell-based
[7] = tested on: HL-60; assay: Antiproliferative activity against human HL60 cells after 48 hrs by EZ-Cytox cell viability assay; type: functional, cell-based; conditions: HL-60, 48 h
[8] = tested on: HeLa; assay: Induction of autophagosome accumulation in human HeLa cells harboring RFP-GFP-LC3 assessed as increase in LC3-2 level after 24 hrs by immunoblot method; type: functional, cell-based
[9] = tested on: HeLa; assay: Induction of autophagosome accumulation in human HeLa cells harboring RFP-GFP-LC3 assessed as GFP-LC3 puncta formation at 30 uM after 24 hrs by DAPI staining based fluorescence microscopic method; type: functional, cell-based
[10] = molecular target: T1, Indoleamine 2,3-dioxygenase 1; assay: Inhibition of ascorbic acid/methylene blue activated recombinant human IDO expressed in Escherichia coli using L-Tryptophan as substrate after 60 mins by spectrophotometric method
Target sequence in this assay (P14902 whole entry): as the sequence (P14902 whole entry, looked up) above

| Compound | IC50 [1] | Activity [2] | IC50 [3] | inhibition [4] | IC50 [5] | IC50 [6] | IC50 [7] | Activity [8] | Activity [9] | IC50 [10] |
| --- | --- | --- | --- | --- | --- | --- | --- | --- | --- | --- |
| C/C=C(\C)[C@H](O)[C@H](C)/C=C(C)/C=C/C/C(C)=C/Cc1nc(OC)c(OC)c(O[C@@H]2O[C@@H](C)[C@@H](O)[C@@H](O)[C@H]2O)c1C | 27.3 µM | Dose-dependent effect | 35.1 µM | < 50% | 23 µM | 29.6 µM | 24.8 µM | Dose-dependent effect | Active | – |
| C/C(=C\[C@H](C)[C@@H](O)[C@@H](C)/C=C/[C@@H](O)C/C=C(\C)C(=O)C[C@H](O)[C@@H](C)/C=C/C=C\C=C/C(=O)NC1=C(Cl)C(=O)c2cc(O)c(C)cc2C1=O)C(=O)O | 71.4 µM | – | > 100 µM | – | 78.1 µM | > 100 µM | 42.2 µM | – | – | – |
| CC(=O)NC1=CC(=O)c2cc(O[C@@H]3O[C@@H](C)[C@@H](O)[C@@H](O)[C@H]3O)c(C)cc2C1=O | 35 µM | – | 72.1 µM | – | 9.3 µM | 33.6 µM | 7.1 µM | – | – | 0.56 µM |
| C/C1=C/C=C\C=C\[C@H](C)[C@@H](O)CC(=O)/C(C)=C/C[C@H](O)/C=C/[C@H](C)[C@H](O)[C@@H](C)/C=C(\C)C(=O)c2c(O)c(C)cc3c2C(=O)C(Cl)=C(NC1=O)C3=O [NAPHTHOMYCIN A] | 30.2 µM | – | 34.6 µM | – | 7.6 µM | 20.5 µM | 2.1 µM | – | – | 0.44 µM |
| CNc1ccccc1C(=O)O[C@@H]1O[C@@H](C)[C@@H](O)[C@@H](O)[C@H]1O | > 100 µM | – | > 100 µM | < 50% | > 100 µM | > 100 µM | > 100 µM | – | – | – |
| C/C(=C\[C@H](C)[C@@H](O)[C@@H](C)/C=C/[C@@H](O)C/C=C(\C)C(=O)C[C@H](O)[C@@H](C)/C=C/C=C\C=C/C(=O)Nc1c(Cl)c(O[C@@H]2O[C@@H](C)[C@@H](O)[C@@H](O)[C@H]2O)c2cc(O)c(C)cc2c1O)C(=O)O | > 100 µM | – | > 100 µM | < 50% | 94.3 µM | > 100 µM | 91.4 µM | – | – | – |
| COc1cccc2c1C(=O)c1c(O)c3c(c(O)c1C2=O)C[C@@](O)(C(=O)CO)C[C@@H]3O[C@H]1C[C@H](N)[C@H](O)[C@H](C)O1 [DOXORUBICIN] | 0.606 µM | – | 0.369 µM | – | 0.406 µM | 0.563 µM | 0.532 µM | – | – | – |
| C/C=C(\C)[C@H](O)[C@H](C)/C=C(C)/C=C/C/C(C)=C/Cc1nc(OC)c(OC)c(O)c1C [PIERICIDIN A] | 84.9 µM | Dose-dependent effect | > 100 µM | < 50% | 82.1 µM | 91.5 µM | 82.1 µM | Dose-dependent effect | Active | – |
| CC1=CC(=O)c2ccccc2C1=O [MENADIONE] | – | – | – | – | – | – | – | – | – | 0.37 µM |
